Key:
Format in all cases: in vivo
[1] = system: Aedes aegypti strain MONHEIM; test: Aedes aegypti test (AEDSAE surface treatment & contact assay); details: 24 hours after contact, read-out: efficacy (mortality); for mortality at 4 mg/m2: surface concentration 4 mg/m^2, 30 minutes exposure; for mortality at 20 mg/m2: surface concentration 20 mg/m^2, 30 minutes exposure
Method: Aedes aegypti Test (AEDSAE Surface Treatment & Contact Assay)
(§1) Solvent: Aceton+2000 ppm rapeseed oil methyl ester (RME)
(§2) In order to produce a sufficient, active ingredient containing solution it is necessary to solve the test-compound in the solvent-mix (Acetone at 2 mg/ml/RME 2000 ppm). This solution is pipetted onto a glazed tile and after evaporation of the Acetone, adult mosquitoes of the species Aedes aegypti strain MONHEIM are placed onto the dried surface. The exposure time is 30 minutes.
(§3) Mortality in percent (%) is determined 24 hours after contact to the treated surface. 100% mortality means that all test-insects are dead, whereas 0% means that not a single insect died.

Myzus persicae [2] = test: Myzus persicae spray test; details: in Brassica rapa, foliar, 120 h
Method: Myzus persicae—Spray Test
(§4) To produce a suitable preparation of active compound, 1 part by weight of active compound is mixed with the stated amount of solvents and is diluted with water, containing an emulsifier concentration of 1000 ppm, to the desired concentration. Further test concentrations are prepared by dilution with emulsifier containing water.
Chinese cabbage (Brassica pekinensis) leaf disks infected with all instars of the green peach aphid (Myzus persicae), are sprayed with a preparation of the active ingredient of the desired concentration.
After 5 days mortality in % is determined. 100% means all aphids have been killed and 0% means none of the aphids have been killed.

Myzus persicae [3] = test: Myzus persicae oral test; details: 120 h
Summary of the method: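 Feeding test: compound diluted in water was combined with IPL41 insect medium (33%+15% sugar) under a parafilm seal. A mixed population of green peach aphids fed through the membrane. Mortality (%) was scored after 5 days.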

Diabrotica balteata = Diabrotica balteata spray test; details: Diabrotica balteata, 168 h; 160 μg/well, wheat seeds, after 7 days; read-out: efficacy (seedlings grown)
Summary of the method: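 Wheat seeds germinated 1 day on agar were sprayed with compound diluted in water with 1000 ppm emulsifier, then infested with 10-20 Diabrotica balteata larvae. Efficacy in % scored after 7 days: 100% = seedlings grown as untreated, uninfected control; 0% = no seedlings grown.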

Ctenocephalides felis [4] = test: Ctenocephalides felis in-vitro contact test adult cat flea; details: Ctenocephalides felis; 5 μg/cm^2 (=500 g/ha), after 48 hours; read-out: efficacy (fleas dead or moribund)
Summary of the method: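 Compound in acetone was coated on glass tube walls, giving 5 μg/cm^2 at 900 ppm. 5-10 adult cat fleas were held at room temperature for 48 h, then heat-challenged at 45-50° C. Fleas immotile or uncoordinated were scored dead/moribund, expressed as % efficacy.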

[5] = system: Anopheles funestus strain FUMOZ-R; test: Anopheles funestus test (ANPHFU surface treatment & contact assay); details: 24 hours after contact, read-out: efficacy (mortality); for mortality at 4 mg/m2: surface concentration 4 mg/m^2, 30 minutes exposure; for mortality at 20 mg/m2: surface concentration 20 mg/m^2, 30 minutes exposure
Method: Anopheles funestus Test (ANPHFU Surface Treatment & Contact Assay)
as §1
as §2, with “Anopheles funestus” for “Aedes aegypti”, “FUMOZ-R (Hunt et al., Med Vet Entomol. 2005 September; 19(3):271-5)” for “MONHEIM”
as §3

[6] = system: Culex quinquefasciatus strain P00; test: Culex quinquefasciatus test (CULXFA surface treatment & contact assay); details: 24 hours after contact, read-out: efficacy (mortality); for mortality at 4 mg/m2: surface concentration 4 mg/m^2, 30 minutes exposure; for mortality at 20 mg/m2: surface concentration 20 mg/m^2, 30 minutes exposure
Summary of the method: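 Compound dissolved in acetone (2 mg/ml) with 2000 ppm rapeseed oil methyl ester, applied to glazed tile and dried. Adult strain P00 mosquitoes exposed to the surface for 30 minutes. Percent mortality scored 24 hours after contact.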

Nilaparvata lugens = Nilaparvata lugens spray test; details: Nilaparvata lugens, in Oryza sativa, 96 h
Method: Nilaparvata lugens—Spray Test
as §4
Rice plants (Oryza sativa) are sprayed with a preparation of the active ingredient of the desired concentration and the plants are infested with the brown planthopper (Nilaparvata lugens).
After 4 days mortality in % is determined. 100% means all planthoppers have been killed and 0% means none of the planthoppers have been killed.

Nezara viridula = Nezara viridula spray test; details: in Hordeum vulgare, 96 h
Summary of the method: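 Barley plants infested with stink bug larvae were sprayed with compound diluted in water containing 1000 ppm emulsifier. Mortality (%) was scored after 4 days, 100% meaning all bugs killed.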

Ctenocephalides felis [7] = test: Ctenocephalides felis oral test; details: Ctenocephalides felis, in Bos taurus, po, 48 h
Summary of the method: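 About 20 adult unfed fleas fed through parafilm on cattle blood containing compound (DMSO concentrate diluted in blood); blood held at 37° C., fleas at room temperature. Mortality in % scored after 2 days (100% = all killed).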

Spodoptera frugiperda = Spodoptera frugiperda spray test; details: in Zea mays, 168 h
Method: Spodoptera frugiperda—Spray Test
as §4
Maize (Zea mays) leaf sections are sprayed with a preparation of the active ingredient of the desired concentration. Once dry, the leaf sections are infested with fall armyworm larvae (Spodoptera frugiperda).
After 7 days mortality in % is determined. 100% means all caterpillars have been killed and 0% means none of the caterpillars have been killed.

[8] = system: Musca domestica strain WHO-N; test: Musca domestica test (MUSCDO surface treatment & contact assay); details: 24 hours after contact, read-out: efficacy (mortality); for mortality at 20 mg/m2: surface concentration 20 mg/m^2, 30 minutes exposure
Method: Musca domestica Test (MUSCDO Surface Treatment & Contact Assay)
as §1
as §2, with “flies” for “mosquitoes”, “Musca domestica” for “Aedes aegypti”, “WHO-N” for “MONHEIM”
as §3

Boophilus microplus = Boophilus microplus injection test; details: Rhipicephalus microplus, 168 h, 20 μg/animal, egg deposition after 7 days, read-out: efficacy (infertile eggs)
Method: Boophilus microplus—Injection Test
Solvent: dimethyl sulfoxide
To produce a suitable preparation of active compound, 10 mg of active compound are dissolved in 0.5 ml solvent, and the concentrate is diluted with solvent to the desired concentration.
Five adult engorged female ticks (Boophilus microplus) are injected with 1 μl compound solution into the abdomen. The ticks are transferred into replica plates and incubated in a climate chamber.
After 7 days egg deposition of fertile eggs is monitored. Eggs where fertility is not visible are stored in a climate chamber till hatching after about 42 days. An efficacy of 100% means all eggs are infertile; 0% means all eggs are fertile.

| SMILES | mortality at 4 mg/m2 [1] [%] | mortality at 20 mg/m2 [1] [%] | mortality at 500 g/ha (Myzus persicae [2]) [%] | mortality at 4 ppm (Myzus persicae [3]) [%] | pest or weed control at 160 µg/disc, 160 µg/well (Diabrotica balteata) [%] | pest or weed control at 5 µg/cm2, 5 µg/cm2 (Ctenocephalides felis [4]) [%] | mortality at 4 mg/m2 [5] [%] | mortality at 4 mg/m2 [6] [%] | mortality at 20 mg/m2 [6] [%] | mortality at 500 g/ha (Nilaparvata lugens) [%] | mortality at 500 g/ha (Nezara viridula) [%] | mortality at 100 ppm (Ctenocephalides felis [7]) [%] | mortality at 20 mg/m2 [5] [%] | mortality at 500 g/ha (Spodoptera frugiperda) [%] | mortality at 20 mg/m2 [8] [%] | pest or weed control at 0.02 mg (Boophilus microplus) [%] | mortality at 4 mg/m2 ([8]; surface concentration 4 mg/m^2, 30 minutes exposure) [%] |
| --- | --- | --- | --- | --- | --- | --- | --- | --- | --- | --- | --- | --- | --- | --- | --- | --- | --- |
| C[C@H](NC(=O)c1cc(Cl)cc([S+]([O-])CC(F)(F)F)c1)c1ncnn1-c1ncccn1 (stereo partly drawn) [Example I-092, 3-chloro-N-{(1S)-1-[1-(pyrimidin-2-yl)-1H-1,2,4-triazol-5-yl]ethyl}-5-[(2,2,2-trifluoroethyl)sulfinyl]benzamide] | 80 to 100 | 90 to 100 | 100 | 100 | 100 | 80 | 85 to 100 | 80 to 100 | 80 to 100 | 100 | 100 |  |  |  |  |  |  |
| C[C@H](NC(=O)c1cc(Cl)cc(S(C)(=O)=O)c1)c1nc(C(F)(F)F)nn1-c1ncccn1 [Example I-091, 3-chloro-N-{(1S)-1-[1-(2-pyrimidinyl)-3-(trifluoromethyl)-1H-1,2,4-triazol-5-yl]ethyl}-5-(methylsulfonyl)benzamide] | 80 to 100 | 90 to 100 | 90 | 100 | 100 | 100 |  | 80 to 100 | 80 to 100 |  | 100 | 100 | 85 to 100 | 83 |  |  |  |
| CON=C(C)c1cc(Cl)cc(C(=O)N[C@@H](C)c2ncnn2-c2ncccn2)c1 [Example I-057, 3-chloro-5-(N-methoxyethanimidoyl)-N-{(1S)-1-[1-(pyrimidin-2-yl)-1H-1,2,4-triazol-5-yl]ethyl}benzamide] | 80 to 100 | 90 to 100 | 90 | 100 | 80 | 100 |  |  | 80 to 100 |  | 100 | 100 |  | 100 |  |  |  |
| C[C@@H](NC(=O)c1cc(Cl)cc(S(=O)(=O)C(F)(F)F)c1)c1ncnn1-c1cnccn1 [Example I-074] |  | 90 to 100 | 90 | 100 | 100 | 90 |  |  | 80 to 100 |  | 100 | 100 |  | 100 | 80 to 100 | 100 |  |
| C[C@@H](NC(=O)c1cc(Cl)cc(S(=O)(=O)C(F)(F)F)c1)c1ncnn1-c1ccc(C#N)cn1 [Example I-067] | 80 to 100 | 90 to 100 |  | 100 | 100 | 90 |  | 80 to 100 | 80 to 100 |  | 100 | 100 |  | 100 | 80 to 100 | 80 |  |
| C[C@@H](NC(=O)c1cc(Cl)cc(S(C)(=O)=O)c1)c1ncnn1-c1ncc(C(F)(F)F)cn1 [Example I-095] |  |  | 90 | 100 | 100 | 100 |  |  |  |  | 100 |  |  | 100 |  |  |  |
| C[C@@H](NC(=O)c1cc(Cl)cc([S+](C)[O-])c1)c1ncnn1-c1ccc(C#N)cn1 (stereo partly drawn) [Example I-070] | 80 to 100 | 90 to 100 | 100 | 100 | 100 | 100 | 85 to 100 | 80 to 100 | 80 to 100 |  | 100 | 100 | 85 to 100 | 100 | 80 to 100 | 100 |  |
| C[C@@H](NC(=O)c1cc(Cl)cc(S(=O)(=O)C(F)(F)F)c1)c1ncnn1-c1ccccn1 [Example I-068] | 80 to 100 | 90 to 100 |  | 90 | 100 | 90 | 85 to 100 | 80 to 100 | 80 to 100 |  | 100 | 100 | 85 to 100 | 100 | 80 to 100 | 100 | 80 to 100 |
| CC(c1ncnn1-c1ncccn1)N(CCC(F)(F)F)C(=O)c1cc(Cl)cc(S(C)(=O)=O)c1 (stereo not drawn) [Example I-039] |  |  | 100 | 100 | 100 | 100 |  |  |  | 100 | 100 | 100 |  |  |  | 100 |  |
| C[C@@H](NC(=O)c1cc(Cl)cc(S(=O)(=O)C(F)(F)F)c1)c1ncnn1-c1ncc(F)cc1F [Example I-078] | 80 to 100 | 90 to 100 |  |  | 100 |  |  | 80 to 100 | 80 to 100 |  | 100 |  | 85 to 100 | 100 | 80 to 100 |  |  |
| C[C@@H](NC(=O)c1cc(Cl)cc(S(=O)(=O)c2ccc(F)cc2)c1)c1ncnn1-c1ncccn1 [Example I-043] | 80 to 100 | 90 to 100 | 90 | 100 | 100 | 90 |  | 80 to 100 | 80 to 100 | 100 | 100 | 100 |  | 100 | 80 to 100 | 100 |  |
